Assay results taken from PMC10504751, “Chalcone/1,3,4-Oxadiazole/Benzimidazole hybrids as novel anti-proliferative agents inducing apoptosis and inhibiting EGFR & BRAFV^600E” (BMC Chemistry, 2023).

Columns and labels:
A498 = assay: NCI one-dose SRB anti-proliferative screen; format: cell-based; conditions: Homo sapiens; A498, Renal cancer; NCI one dose; read-out: Cell growth inhibition %
Procedure, shortened: (§1)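 Compounds were tested at a single 10 µM concentration within a 60-cell-line panel covering nine tumour subpanels. Growth was read colorimetrically by sulforhodamine B staining.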

BT-549 = assay: NCI one-dose SRB anti-proliferative screen; format: cell-based; conditions: Homo sapiens; BT-549, Breast cancer; NCI one dose; read-out: Cell growth inhibition %
Procedure, shortened: as §1

HCT-15 = assay: NCI one-dose SRB anti-proliferative screen; format: cell-based; conditions: Homo sapiens; HCT-15, Colon cancer; NCI one dose; read-out: Cell growth inhibition %
Procedure, shortened: as §1

HL-60(TB) = assay: NCI one-dose SRB anti-proliferative screen; format: cell-based; conditions: Homo sapiens; HL-60(TB), Leukemia; NCI one dose; read-out: Cell growth inhibition %
Procedure, shortened: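 Activity reflects a single-point exposure at 10 µM, with cell mass determined by a sulforhodamine B dye assay.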

HOP-62 = assay: NCI one-dose SRB anti-proliferative screen; format: cell-based; conditions: Homo sapiens; HOP-62, Non-Small Cell Lung Cancer; NCI one dose; read-out: Cell growth inhibition %
Procedure, shortened: as §1

HOP-92 = assay: NCI one-dose SRB anti-proliferative screen; format: cell-based; conditions: Homo sapiens; HOP-92, Non-Small Cell Lung Cancer; NCI one dose; read-out: Cell growth inhibition %
Procedure, shortened: as §1

HT29 = assay: NCI one-dose SRB anti-proliferative screen; format: cell-based; conditions: Homo sapiens, HT-29; HT29, Colon cancer; NCI one dose; read-out: Cell growth inhibition %
Procedure, shortened: as §1

MDA-MB-231/ATCC = assay: NCI one-dose SRB anti-proliferative screen; format: cell-based; conditions: Homo sapiens; MDA-MB-231/ATCC, Breast cancer; NCI one dose; read-out: Cell growth inhibition %
Procedure, shortened: as §1

MDA-MB-435 = assay: NCI one-dose SRB anti-proliferative screen; format: cell-based; conditions: Homo sapiens; MDA-MB-435, Melanoma; NCI one dose; read-out: Cell growth inhibition %
Procedure, shortened: as §1

NCI-H322M = assay: NCI one-dose SRB anti-proliferative screen; format: cell-based; conditions: Homo sapiens; NCI-H322M, Non-Small Cell Lung Cancer; NCI one dose; read-out: Cell growth inhibition %
Procedure, shortened: as §1

NCI-H460 = assay: NCI one-dose SRB anti-proliferative screen; format: cell-based; conditions: Homo sapiens; NCI-H460, Non-Small Cell Lung Cancer; NCI one dose; read-out: Cell growth inhibition %
Procedure, shortened: as §1

NCI/ADR-RES = assay: NCI one-dose SRB anti-proliferative screen; format: cell-based; conditions: Homo sapiens; NCI/ADR-RES, Ovarian Cancer; NCI one dose; read-out: Cell growth inhibition %
Procedure, shortened: as §1

OVCAR-4 = assay: NCI one-dose SRB anti-proliferative screen; format: cell-based; conditions: Homo sapiens; OVCAR-4, Ovarian Cancer; NCI one dose; read-out: Cell growth inhibition %
Procedure, shortened: as §1

OVCAR-5 = assay: NCI one-dose SRB anti-proliferative screen; format: cell-based; conditions: Homo sapiens; OVCAR-5, Ovarian Cancer; NCI one dose; read-out: Cell growth inhibition %
Procedure, shortened: as §1

OVCAR-8 = assay: NCI one-dose SRB anti-proliferative screen; format: cell-based; conditions: Homo sapiens; OVCAR-8, Ovarian Cancer; NCI one dose; read-out: Cell growth inhibition %
Procedure, shortened: as §1

SF-539 = assay: NCI one-dose SRB anti-proliferative screen; format: cell-based; conditions: Homo sapiens; SF-539, CNS Cancer; NCI one dose; read-out: Cell growth inhibition %
Procedure, shortened: as §1

SK-MEL-2 = assay: NCI one-dose SRB anti-proliferative screen; format: cell-based; conditions: Homo sapiens; SK-MEL-2, Melanoma; NCI one dose; read-out: Cell growth inhibition %
Procedure, shortened: as §1

SNB-19 = assay: NCI one-dose SRB anti-proliferative screen; format: cell-based; conditions: Homo sapiens; SNB-19, CNS Cancer; NCI one dose; read-out: Cell growth inhibition %
Procedure, shortened: as §1

SR = assay: NCI one-dose SRB anti-proliferative screen; format: cell-based; conditions: Homo sapiens; SR, Leukemia; NCI one dose; read-out: Cell growth inhibition %
Procedure, shortened: as §1

SW-620 = assay: NCI one-dose SRB anti-proliferative screen; format: cell-based; conditions: Homo sapiens; SW-620, Colon cancer; NCI one dose; read-out: Cell growth inhibition %
Procedure, shortened: as §1

TK-10 = assay: NCI one-dose SRB anti-proliferative screen; format: cell-based; conditions: Homo sapiens; TK-10, Renal cancer; NCI one dose; read-out: Cell growth inhibition %
Procedure, shortened: as §1

U251 = assay: NCI one-dose SRB anti-proliferative screen; format: cell-based; conditions: Homo sapiens, U-251; U251, CNS Cancer; NCI one dose; read-out: Cell growth inhibition %
Procedure, shortened: as §1

UO-31 = assay: NCI one-dose SRB anti-proliferative screen; format: cell-based; conditions: Homo sapiens; UO-31, Renal cancer; NCI one dose; read-out: Cell growth inhibition %
Procedure, shortened: as §1

M14 = assay: NCI one-dose SRB anti-proliferative screen; format: cell-based; conditions: Homo sapiens; M14, Melanoma; NCI one dose; read-out: Cell growth inhibition %
Procedure, shortened: as §1

SMILES | inhibition at 10 µM (A498) [%] | inhibition at 10 µM (BT-549) [%] | inhibition at 10 µM (HCT-15) [%] | inhibition at 10 µM (HL-60(TB)) [%] | inhibition at 10 µM (HOP-62) [%] | inhibition at 10 µM (HOP-92) [%] | inhibition at 10 µM (HT29) [%] | inhibition at 10 µM (MDA-MB-231/ATCC) [%] | inhibition at 10 µM (MDA-MB-435) [%] | inhibition at 10 µM (NCI-H322M) [%] | inhibition at 10 µM (NCI-H460) [%] | inhibition at 10 µM (NCI/ADR-RES) [%] | inhibition at 10 µM (OVCAR-4) [%] | inhibition at 10 µM (OVCAR-5) [%] | inhibition at 10 µM (OVCAR-8) [%] | inhibition at 10 µM (SF-539) [%] | inhibition at 10 µM (SK-MEL-2) [%] | inhibition at 10 µM (SNB-19) [%] | inhibition at 10 µM (SR) [%] | inhibition at 10 µM (SW-620) [%] | further results
O=C(CSc1nnc(-c2ccc3[nH]c(-c4ccccc4)nc3c2)o1)Nc1ccc(C(=O)/C=C/c2ccccc2)cc1 [Compound 7a, 2-{5-[2-Phenyl-1 H-benzo[d]imidazol-5-yl]-1,3,4-oxadiazol-2-ylthio}-N-{4-[(E)-3-phenylacryloyl]phenyl}acetamide] | 4.13 | 3.16 | 0 | 0 | 0 | 0 | 0 | 0 | 0 | 0 | 0 | 0 | 0 | 0 | 0.04 | 3.15 | 0 | 0.06 | 0 | 0 | inhibition at 10 µM (TK-10): 0%; inhibition at 10 µM (U251): 1.83%; inhibition at 10 µM (UO-31): 12.6%; melting point: 273 to 275 °C
O=C(CSc1nnc(-c2ccc3[nH]c(-c4ccccc4)nc3c2)o1)Nc1ccc(C(=O)/C=C/c2ccc(Cl)cc2)cc1 [Compound 7b, 2-{5-[2-Phenyl-1 H-benzo[d]imidazol-5-yl]-1,3,4-oxadiazol-2-ylthio}-N-{4-[(E)-3-(4-chlorophenyl)acryloyl]phenyl}acetamide] | 6.84 | 1.92 | 0 | 0 | 0 | 0 | 0 | 4.03 | 0 | 0 | 0 | 0 | 0 | 0 | 2.36 | 4.06 | 0 | 3.92 | 3.59 | 0 | inhibition at 10 µM (TK-10): 0%; inhibition at 10 µM (U251): 7.14%; inhibition at 10 µM (UO-31): 25.5%; melting point: 263 to 264 °C
COc1ccc(/C=C/C(=O)c2ccc(NC(=O)CSc3nnc(-c4ccc5[nH]c(-c6ccccc6)nc5c4)o3)cc2)cc1 [Compound 7c, 2-{5-[2-Phenyl-1 H-benzo[d]imidazol-5-yl]-1,3,4-oxadiazol-2-ylthio}-N-{4-[(E)-3-(4-methoxyphenyl)acryloyl]phenyl}acetamide] | 22.6 | 18.7 | 3.81 | 5.24 | 0 | 0 | 1.01 | 0 | 0 | 0 | 0 | 0 | 0 | 0 | 9.58 | 8.76 | 2.65 | 7.28 | 12.7 | 0 | inhibition at 10 µM (TK-10): 0%; inhibition at 10 µM (U251): 17.2%; inhibition at 10 µM (UO-31): 8.67%; melting point: 175 to 177 °C
COc1ccc(/C=C/C(=O)c2ccc(NC(=O)CSc3nnc(-c4ccc5[nH]c(-c6ccccc6)nc5c4)o3)cc2)cc1OC [Compound 7d, 2-{5-[2-Phenyl-1 H-benzo[d]imidazol-5-yl]-1,3,4-oxadiazol-2-ylthio}-N-{4-[(E)-3-(3,4-dimethoxyphenyl)acryloyl]phenyl}acetamide] | 14.3 | 10.4 | 0 | 0 | 0 | 0 | 0 | 0 | 0 | 0 | 0 | 0 | 0 | 0 | 0 | 0.34 | 0 | 3.18 | 4.34 | 0 | inhibition at 10 µM (TK-10): 0%; inhibition at 10 µM (U251): 5.02%; inhibition at 10 µM (UO-31): 11%; melting point: 156 to 158 °C
COc1cc(/C=C/C(=O)c2ccc(NC(=O)CSc3nnc(-c4ccc5[nH]c(-c6ccccc6)nc5c4)o3)cc2)cc(OC)c1OC [Compound 7e, 2-{5-[2-Phenyl-1 H-benzo[d]imidazol-5-yl]-1,3,4-oxadiazol-2-ylthio}-N-{4-[(E)-3-(3,4,5-trimethoxyphenyl)acryloyl]phenyl}acetamide] | 15.6 | 18.4 | 12.4 | 31 | 0 | 0 | 0 | 6.4 | 5.93 | 3.06 | 7.53 | 0 | 0.46 | 0 | 2.93 | 17.5 | 0 | 15.6 | 63.2 | 1.21 | inhibition at 10 µM (TK-10): 0%; inhibition at 10 µM (U251): 19.4%; inhibition at 10 µM (UO-31): 10.6%; melting point: 143 to 144 °C
COc1ccc(-c2nc3cc(-c4nnc(SCC(=O)Nc5ccc(C(=O)/C=C/c6ccccc6)cc5)o4)ccc3[nH]2)cc1 [Compound 7k, 2-{5-[2-(4-Methoxyphenyl)-1 H-benzo[d]imidazol-5-yl]-1,3,4-oxadiazol-2-ylthio}-N-{4-[(E)-3-phenylacryloyl]phenyl}acetamide] | 19.9 | 38.1 | 23.5 | 28.7 | 0 | 20.3 | 14.1 | 22.5 | 33.6 | 0 | 6.61 | 10.3 | 19.1 | 0 | 28.2 | 27.5 | 0 | 0 | 51.6 | 0 | inhibition at 10 µM (M14): 12.9%; inhibition at 10 µM (TK-10): 0%; inhibition at 10 µM (U251): 33.2%; inhibition at 10 µM (UO-31): 33.8%
